Holding throughout (format): cell-based
Assay [1] deals with HIV-1 virus strain HTLV-IIIB. Nature of the assay: p24 detection by Western blot in HIV-infected cells after gag peptide treatment. Particulars: two weeks after infection, Western blot with anti-p24 MAbs. (In general: A western blot detects proteins with antibodies after separation by electrophoresis.)
Protocol: (§1) Cells. Permanently growing T lymphocytes (Jurkat or H9 cells) were used for the in vitro experiments. The medium used was conventional RPMI 1640 with 10% FCS, 2% NaHCO3 (5% strength), 1% penicillin/streptavidin solution and 2 mg/l Polybrene. The experiments were carried out either in 96-well microtiter plates (Nunc) or in 24-well plates (Nunc).
(§2) Viruses. HIV-1 virus strain HTLV-IIIB and HIV-2 strain ROD were used.
In the first experiment, 50 μl of 1×10^6 jurkat cells/ml were pipetted into each well of 96-well plates, and each was infected with 50 μl (1000 TCID50) HTLV-IIIB. The gag peptide concentration was adjusted to 200 μg/ml or 40 μg/ml. After one week, 100 μl of supernatant were removed and any cells still present were removed by centrifugation. Then 80 μl of supernatant were placed on an uninfected jurkat cell culture. Viral antigen was detected in the infected cells by immunolabeling after a Western blot. For this, the cells remaining after the inhibition experiment were taken up in 2×SDS-PAGE sample buffer and fractionated in a 14% PAG. The fractionated proteins were then blotted onto a nitrocellulose membrane and incubated with an anti-p24 HIV-1 monoclonal antibody to detect viral proteins. […] Infectious HIV in the supernatant of the peptide-treated cells was analyzed by the reverse transcriptase assay. […]
The subject of assay [2] is HIV-2 strain ROD. The experiment in a line: Inhibition of HIV-2 synthesis: reverse transcriptase activity in detector cell culture supernatant (Experiment 3). The conditions noted are these: Experiment 3 (FIG. 3); 100 TCID50 HIV-2, H9 cells.
Protocol: as §1, §2
(§3) Reverse transcriptase assay. The microassay for detecting viral reverse transcriptase was carried out by the method of Gregersen et al. (Gregersen et al. (1988) Detection of human immunodeficiency virus and other retroviruses in cell culture supernatants by a reverse transcriptase microassay. J. Virol. Methods 19, 161-168). Cell culture supernatants were concentrated five-fold by PEG precipitation. Positive controls (VC) were supernatants of untreated infected cell cultures, and negative controls (NC) were cell culture supernatants from uninfected cells. The value measured for the NC was doubled and used as value for excluding negative cells.
H9 cells were infected with 100 TCID50 HIV-2 for this experiment. […]
100 TCID50 HIV-1 and HIV-2 were employed to infect the jurkat and H9 cells respectively. Reverse transcriptase activity measured in cpm in the cell culture supernatant from the detector cell culture. […]
Assay [3] deals with HIV-1 virus strain HTLV-IIIB. Nature of the assay: Inhibition of HIV-1 synthesis: infectious virus / reverse transcriptase activity in detector cell culture supernatant. The conditions noted are these: for inhibitory effect on HIV-1 synthesis (reverse transcriptase activity of detector culture supernatant): Experiment 3 (FIG. 3), 100 TCID50 HIV-1, jurkat cells, detector cultures incubated two weeks; for inhibitory effect on HIV-1 synthesis: Experiments 1 and 2, jurkat cells, 1000 or 100 TCID50 HTLV-IIIB, peptide 200 or 40 μg/ml.
Protocol: These peptides were added in various concentrations (200-40 μg/ml) to freshly infected jurkat cells. Infection was carried out with 100-1000 TCID50. The infection was analyzed by microscopic assessment and investigation of the supernatant for the content of infectious HIV. For this purpose, the cell supernatant was added to non-infected jurkat cells. After incubation for two weeks, this detector cell culture was examined for HIV under the microscope and by reverse transcriptase assay.
Permanently growing T lymphocytes (Jurkat or H9 cells) were used for the in vitro experiments. The medium used was conventional RPMI 1640 with 10% FCS, 2% NaHCO3 (5% strength), 1% penicillin/streptavidin solution and 2 mg/l Polybrene. The experiments were carried out either in 96-well microtiter plates (Nunc) or in 24-well plates (Nunc).
HIV-1 virus strain HTLV-IIIB and HIV-2 strain ROD were used.
as §3
In the first experiment, 50 μl of 1×10^6 jurkat cells/ml were pipetted into each well of 96-well plates, and each was infected with 50 μl (1000 TCID50) HTLV-IIIB. The gag peptide concentration was adjusted to 200 μg/ml or 40 μg/ml. After one week, 100 μl of supernatant were removed and any cells still present were removed by centrifugation. Then 80 μl of supernatant were placed on an uninfected jurkat cell culture. […] Infectious HIV in the supernatant of the peptide-treated cells was analyzed by the reverse transcriptase assay.
1000 TCID50 HIV-1 were employed for infecting the jurkat cells. Reverse transcriptase activity measured in cpm in the cell culture supernatant from the detector cell culture. The supernatant was concentrated five-fold by PEG precipitation. VC=virus control; NC=negative control. Twice the NC value was used to exclude negative cell cultures. To improve clarity, the RT values are reported in the figure in logarithmic presentation.
100 TCID50 HIV-1 were employed to infect the jurkat cells. Reverse transcriptase activity measured in cpm in the cell culture supernatant from the detector cell culture. The supernatant was concentrated five-fold by PEG precipitation. VC=virus control; NC=negative control.

Regarding NPGLLETSEGCROILGQLQPSLQT [Peptide 5], the “p24 Detection” value in assay [1] is on record as “(+)”. In addition, the “inhibition of HIV-2 synthesis (reverse transcriptase activity of detector culture supernatant)” value in assay [2] was “very clearly evident”. In assay [3], the “inhibitory effect on HIV-1 synthesis (reverse transcriptase activity of detector culture supernatant)” value is listed as “strong inhibitory effect” and the “inhibitory effect on HIV-1 synthesis” value is “exerted an inhibitory effect on HIV-1 synthesis”.

On to “WASRELERFAVNPGLLETSEGCRQ [Peptide 4, synthetic gag peptide from the p17 submembrane protein]”, for which the “p24 Detection” value in assay [1] is “-”. Further, the “inhibition of HIV-2 synthesis (reverse transcriptase activity of detector culture supernatant)” value in assay [2] is “very clearly evident”. Further, in assay [3], the “inhibitory effect on HIV-1 synthesis (reverse transcriptase activity of detector culture supernatant)” value is listed as “strong inhibitory effect” and the “inhibitory effect on HIV-1 synthesis” value is “exerted an inhibitory effect on HIV-1 synthesis”.

The values above are taken from US5612453A, “Selected peptides of the group-specific antigen (gag) of human immunodeficiency virus (HIV), the preparation and use thereof” (Chiron Behring GmbH & Co., priority 1990, dated 1997).
